Reference: patent US10278962B2, “Tricyclic analogues, preparation method and uses thereof” (SHANGHAI INSTITUTE OF MATERIA MEDICA, CHINESE ACADEMY OF …, priority 2015, dated 2019)
One block for each molecule: values may come before it.

Legend:
ACAT2 [1] = molecular target: T1, ACAT2 (Homo sapiens (Human), UniProt O75908); assay: Inhibitory effect on ACAT2 activity, NBD22-fluorescent labeled sterol method in intact HepG2 cells; assay type: cell-based; conditions: for IC50: NBD22-fluorescent labeled sterol, 6 hours incubation; for inhibition rate % on ACAT2 activity: relative inhibition rate with Pyripyropene A (0.2 μM) as the 100% inhibition control
T1 sequence (O75908 whole entry): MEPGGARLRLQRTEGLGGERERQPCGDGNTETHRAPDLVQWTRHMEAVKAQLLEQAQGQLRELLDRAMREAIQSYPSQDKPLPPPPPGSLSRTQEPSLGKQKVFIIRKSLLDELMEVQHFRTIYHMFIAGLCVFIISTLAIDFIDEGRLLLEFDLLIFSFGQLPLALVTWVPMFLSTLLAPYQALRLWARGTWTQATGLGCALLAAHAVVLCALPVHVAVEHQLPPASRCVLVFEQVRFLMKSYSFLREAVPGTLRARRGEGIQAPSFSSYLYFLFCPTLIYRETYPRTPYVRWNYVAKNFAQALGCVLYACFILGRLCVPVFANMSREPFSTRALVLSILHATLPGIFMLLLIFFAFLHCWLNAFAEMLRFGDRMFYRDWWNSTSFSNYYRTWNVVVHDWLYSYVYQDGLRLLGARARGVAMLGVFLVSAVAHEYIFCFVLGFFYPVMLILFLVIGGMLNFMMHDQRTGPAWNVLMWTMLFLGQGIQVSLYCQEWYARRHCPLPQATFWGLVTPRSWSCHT
Procedure: An inhibition curve was plotted based on that different concentrations of compounds would cause the fluorescence intensity to change by inhibiting the synthesis of the ester containing NBD22-fluorescent labeled sterol, thereby IC50 was calculated.
HepG2 cells were cultured in a 96-well plate at a starting density of 1.5×10^4 cells per well for 24 hours. After the cholesterol mixture was well mixed, the cells were cultured for another 24 hours. Then NBD22-fluorescent labeled sterol at a final concentration of 0.5 μg/ml, and compounds at a final concentration gradient of 0, 0.008, 0.04, 0.2, 1 and 5 μM were added. Three wells were set for each concentration. After incubating for 6 hours, the fluorescence intensity was measured using a fluorescence analyzer (E488, A535). The fluorescence intensity values were plotted against different concentrations of the compounds and IC50 was obtained.

ACAT2 [2] = molecular target: T1, ACAT2; assay: Cholesterol oxidase method for ACAT activity in HepG2 cells, ACAT2; assay type: cell-based; conditions: 10 μg/ml cholesterol, 9 hours
Procedure: HepG2 cells were used for testing the inhibitory effect of compounds at different concentrations on ACAT1 or ACAT2 activity, thereby obtaining IC50 to calculate SI(ACAT1-IC50/ACAT2-IC50).
HepG2 cells were cultured in a 6-well plate at a starting density of 4×10^5 cells per well for 24 hours, then the medium was replaced and 10 μg/ml of cholesterol and the compounds at different concentrations were added. The cells were cultured for another 9 hours and cholesterol amounts of the cells were measured with Cholesterol Assay kit.

Structure (SMILES): CC(=O)OCC(C)(OC(C)=O)[C@H]1CC2[C@@H](O)c3c(cc(-c4cccnc4)oc3=O)O[C@]2(C)[C@@H](OC(C)=O)C1 (stereo in doubt) [Compound 16]
IC50 (ACAT2 [1]): 245 nM

Structure (SMILES): CC(=O)OCC(C)(OC(C)=O)[C@@H]1C[C@H](OC(C)=O)[C@@]2(C)Oc3cc(-c4cccnc4)oc(=O)c3[C@@H](O)[C@@H]2C1 (stereo partly shown) [Compound 7]
IC50 (ACAT2 [2]): 147 nM
IC50 (ACAT2 [1]): 152 nM

Structure (SMILES): CC(=O)OCC(C)(OC(C)=O)[C@@H]1C[C@H](OC(C)=O)[C@@]2(C)Oc3cc(-c4cccnc4)oc(=O)c3[C@@H](O)[C@@H]2C1 (stereo partly shown) [Compound 15]
IC50 (ACAT2 [1]): 831 nM

Structure (SMILES): CC(=O)OC[C@](C)(OC(C)=O)[C@@H]1C[C@@H]2[C@@H](O)c3c(cc(-c4cccnc4)oc3=O)O[C@@]2(C)[C@H](OC(C)=O)C1 [Compound 21]
IC50 (ACAT2 [2]): 55 nM
IC50 (ACAT2 [1]): 78 nM

Structure (SMILES): CC(=O)OC[C@](C)(OC(C)=O)[C@H]1C[C@@H](OC(C)=O)[C@]2(C)Oc3cc(-c4cccnc4)oc(=O)c3[C@@H](O)[C@@H]2C1 [Compound 22]
IC50 (ACAT2 [2]): 90 nM
IC50 (ACAT2 [1]): 86 nM

Structure (SMILES): CC(=O)OC[C@](C)(OC(C)=O)[C@@H]1C[C@@H]2[C@H](O)c3c(cc(-c4cccnc4)oc3=O)O[C@@]2(C)[C@H](OC(C)=O)C1 [Compound 26]
IC50 (ACAT2 [1]): 433 nM

Results, then the molecule that gave them:

inhibition rate % on ACAT2 activity (ACAT2 [1]): 104%
Structure (SMILES): CC(=O)OCC(COC(C)=O)[C@@H]1C[C@H](OC(C)=O)[C@@]2(C)Oc3cc(-c4cccnc4)oc(=O)c3C(=O)[C@@H]2C1 [Compound 2]

inhibition rate % on ACAT2 activity (ACAT2 [1]): 90%
Structure (SMILES): CC(=O)OCC(C)(OC(C)=O)[C@@H]1C[C@H](OC(C)=O)[C@@]2(C)Oc3cc(-c4cccnc4)oc(=O)c3C(=O)[C@@H]2C1 (stereo partly shown) [Compound 3]

inhibition rate % on ACAT2 activity (ACAT2 [1]): 90%
Structure (SMILES): CC(=O)OCC(COC(C)=O)[C@@H]1C[C@H](OC(C)=O)[C@@]2(C)Oc3cc(-c4cccnc4)oc(=O)c3[C@@H](O)[C@@H]2C1 [Compound 6]

IC50 (ACAT2 [2]): 61 nM
IC50 (ACAT2 [1]): 86 nM
Structure (SMILES): CC(=O)OCC(C)(OC(C)=O)[C@@H]1C[C@H](OC(=O)c2ccc(C#N)cc2)[C@@]2(C)Oc3cc(-c4cccnc4)oc(=O)c3[C@@H](OC(C)=O)[C@@H]2C1 (stereo partly shown) [Compound 8]

IC50 (ACAT2 [2]): 12 nM
IC50 (ACAT2 [1]): 23 nM
Structure (SMILES): CC(O)(COC(=O)c1ccc(C#N)cc1)[C@@H]1C[C@H](OC(=O)c2ccc(C#N)cc2)[C@@]2(C)Oc3cc(-c4cccnc4)oc(=O)c3C(=O)[C@@H]2C1 (stereo partly shown) [Compound 13]

IC50 (ACAT2 [2]): 129 nM
IC50 (ACAT2 [1]): 103 nM
Structure (SMILES): CC(O)(COC(=O)c1ccc(C#N)cc1)[C@@H]1C[C@H](O)[C@@]2(C)Oc3cc(-c4cccnc4)oc(=O)c3C(=O)[C@@H]2C1 (stereo partly shown) [Compound 14]

IC50 (ACAT2 [1]): 81 nM
Structure (SMILES): CC(=O)OC[C@](C)(O)[C@H]1C[C@@H](O)[C@]2(C)Oc3cc(-c4cccnc4)oc(=O)c3[C@H](O)[C@H]2C1 [Compound 29]
